Source: publication PMC3984012 (Journal of Acquired Immune Deficiency Syndromes (1999), 2014)

What was measured:
HIV-1 = conditions: cited from earlier work
CYP3A = conditions: oral coadministration of midazolam; cited from earlier work
[1] = cited from earlier work; for AUC8 previously reported / C8 previously reported: dosed alone, range; for Mean historical minimum plasma concentration (Cmin): historical data
OATP1B1 = conditions: read-out: OATP1B1 IC50; in vitro data; cited from earlier work
CYP3A and OATP1B1 = conditions: coadministered with atorvastatin; cited from earlier work
[2] = Plasma BOC and TVR pharmacokinetics when coadministered with MVC; assay type: in vivo, human; conditions: coadministered with MVC 150 mg BID
P-gp = conditions: cited from earlier work

Molecule | Cavg exposure at which near maximal virologic efficacy is achieved (HIV-1) | Increase in AUC of midazolam (CYP3A) [%] | AUC8 previously reported [1] [ng·h/mL] | C8 previously reported [1] [ng/mL] | Mean historical minimum plasma concentration (Cmin) [1] [ng/mL] | IC50 (OATP1B1) [µM] | Increase in AUC (exposure) of atorvastatin (CYP3A and OATP1B1) [fold] | Exposures when coadministered with MVC compared with historical data [2] | Increase in AUC of digoxin (P-gp) [%]
Maraviroc [MVC] | 75–100 ng/mL | – | – | – | – | – | – | – | –
CC(C)(C)NC(=O)N[C@H](C(=O)N1C[C@H]2[C@@H]([C@H]1C(=O)NC(CC1CCC1)C(=O)C(N)=O)C2(C)C)C(C)(C)C (some centres unmarked) [BOC, Boceprevir] | – | 430 | 4601 to 7070 | 88.5 to 111 | 102 | 18 | 2.30 | consistent with historical data | 19
CCC[C@H](NC(=O)[C@@H]1[C@H]2CCC[C@H]2CN1C(=O)[C@@H](NC(=O)[C@@H](NC(=O)c1cnccn1)C1CCCCC1)C(C)(C)C)C(=O)C(=O)NC1CC1 [TVR, Telaprevir] | – | 796 | 18157 to 22300 | 1505 to 2030 | 1802 | 2.2 | 7.88 | consistent with historical data | 85
